Patent US20100167260A1, “Use of N-Piperidine Derivative Compositions for Protecting Biological Systems” (MEDESTEA RESEARCH & PRODUCTION SPA, priority 2006, published 2010)

Assays:
rabbit heart [1] = experiment: Rabbit heart cold preservation (24 h, 4° C.) and Langendorff reperfusion: developed pressure
Method: Male New Zealand rabbits (1.4-1.8 kg weight) were kept on a standard laboratory diet supplemented with “Nossan pellet” (both the animals and pellets are available from Nossan Company, Milan, Italy) and were housed for three weeks (relative humidity 50% ±10%, temperature 22° C.±1° C. and in a light/darkness cycle of 12 hours/12 hours, with first light at 7.30 a.m.) prior to the experiments; food and water were available ad libitum.
The hearts were quickly excised from anesthetized animals (55 mg/kg body weight sodium pentobarbital; ten rabbits for each experiment group were used) flushed with the respective experimental solutions and placed in either cold (4° C.) Celsior and Celsior plus 5 mM MP1001 or Celsior plus GSH 5 mM for 24 hours. Because Celsior standard solution contains 3 mM reduced glutathione (GSH), comparative experiments in term of “total antioxidant power” using equimolar antioxidant amount (e.g. adding 5 mM MP1001 or 5 mM GSH to Celsior) were performed. […]
After 24 hours of cold preservation and reperfusion for 1 hour, the developed pressure (as a measure of protection) of the hearts preserved in Celsior (standard/control) was a mean of 34±9.55 mmHg. […] We determined that this level of recovery was not sufficient and proceeded to add the cardioprotective antioxidant MP1001 (5 mM) or GSH (5 mM, to have a final, equimolar 8 mM “antioxidant concentration”).

rabbit heart [2] = experiment: Lipid peroxidation (MDA release) in rabbit hearts after 1 h reperfusion
Method: (§1) The hearts were quickly excised from anesthetized animals (55 mg/kg body weight sodium pentobarbital; ten rabbits for each experiment group were used) flushed with the respective experimental solutions and placed in either cold (4° C.) Celsior and Celsior plus 5 mM MP1001 or Celsior plus GSH 5 mM for 24 hours. Because Celsior standard solution contains 3 mM reduced glutathione (GSH), comparative experiments in term of “total antioxidant power” using equimolar antioxidant amount (e.g. adding 5 mM MP1001 or 5 mM GSH to Celsior) were performed.
(§2) At the end of cold preservation, the organs were then reperfused in a Langerdoff working heart model with oxygenated Krebs-Henseleit buffer (120 mM NaCl, 25 mM NaHCO3, 4.9 mM KCl, 1.2 mM KH2PO4, 2.5 mM CaCl2, 1.25 MgSO4 and 10 mM glucose). The buffers were bubbled regularly with a mixture of O2 (95%) and CO2 (5%); the CO2 helped maintain the buffer at a physiological pH (7.4). In the mean time, the apparatus had extensive water-jacketing connected to a water heater that maintained buffers and hearts at 37° C. The buffers was filtered through a Gelman GA-4, 0.8 μm metrical, membrane before the use. […]
(§3) Lipid peroxidation was determined by quantification of the release of malondialdeyde (MDA) accumulated in cells which was used as biomarker, essentially according to Buege Y. A. & Aust S. G., Method Enzymol. […]

rabbit heart [3] = experiment: Carbonyl proteins in rabbit hearts after 1 h reperfusion
Method: as §1, §2, §3

rabbit heart [4] = experiment: LDH levels in the perfusate of rabbit hearts after 1 h reperfusion
Method: as §1, §2, §3

rabbit heart [5] = experiment: Histopathological analysis of rabbit hearts after 1 h reperfusion; conditions: hearts stored in Celsior plus 5 mM MP1001 as compared to GSH
Method: as §1
as §2, with “use. A saline-filled latex balloon connected through a pressure transducer to a polygraph recorder was inserted into the left ventricle through a left atriotomy and secured by a suture to the mitrial annulus.” for “use.”

[6] = rabbit hearts, 24 h cold preservation in Celsior (additive 5 mM where given)

SMILES	developed pressure (rabbit heart [1]; rabbit hearts, 24 hours cold (4° C.) preservation in Celsior (additive 5 mM where given), reperfusion for 1 hour)	lipid peroxidation (malondialdeyde, MDA) (rabbit heart [2]; [6])	carbonyl proteins (rabbit heart [3]; [6])	LDH levels in the perfusate (rabbit heart [4]; [6])	histopathological analysis (myocyte injury, edema, endotelial damage) (rabbit heart [5])	protection (developed pressure) compared to standard Celsior solution (rabbit heart [1]; 5 mM added to Celsior (8 mM GSH final), 24 hours cold preservation, 1 h reperfusion)	effect on lipid peroxidation vs standard Celsior (rabbit heart [2]; additional 5 mM in Celsior)	effect on carbonyl proteins vs standard Celsior (rabbit heart [3]; 5 mM supplement in Celsior)	effect on LDH vs standard Celsior (rabbit heart [4]; 5 mM supplement in Celsior)
CC1(C)CC(OC(=O)CCCCCCCCC(=O)OC2CC(C)(C)N(O)C(C)(C)C2)CC(C)(C)N1O [MP1001, bis(1-hydroxy-2,2,6,6-tetramethyl-4-piperidinyl)decandioate]	88±9.02 mmHg	0.31±0.10	48±11	0.3±0.1	Hearts sustained less injury by all criteria examined				
N[C@@H](CCC(=O)N[C@@H](CS)C(=O)NCC(=O)O)C(=O)O [GSH, reduced glutathione, reference compound]						did not provide any additional protection	did not significantly modify this parameter	not modified	not modified
